Assay results: patent US4407796A, “Modulators of the complement system” (American Cyanamid Company, priority 1981, dated 1983)
Where a name gives a salt, the structure may show the parent alone.

Tests used:
[1] = molecular target: activated human C1 (Homo sapiens, UniProt P09871); test: Test Code 026 (C1 inhibitor); assay type: biochemical; details: serial twofold dilution assay; higher well number indicates higher activity
Procedure: (§1) An active inhibitor protects C2 from C1 and C4; (ii) Test Code 035 (C3-C9 inhibitor)--This test determines the ability of the late components of human complement (C3-C9) to lyse EAC 142 in the presence of appropriate dilutions of the test compound. An active inhibitor protects EAC 142 from lysis by human C3-C9; (iii) Cap 50 Test--Here, appropriate amounts of the test compound are added to a pool of guinea pig or human serum in vitro, after which the undiluted serum capillary tube assay of U.S. Pat. No. 3,876,376 is run. The concentration of compound inhibiting 50% is reported; and (iv) Guinea Pig Intraperitoneal Test (GPIP)--Guinea pigs weighing about 300 g are dosed intraperitoneally (i.p.) with 200 mg/kg of the test compound dissolved in saline and adjusted to pH 7-8. Approximately 0.4 ml blood samples, taken by orbital sinus puncture 2 hours and 6 hours after injections, are collected directly into centrifuge tubes; 5 ml blood samples, taken by decapitation 24 hours after injection, are collected directly into beakers. The samples are allowed to clot, centrifuged, and the resultant sera are assayed for complement activity using the capillary complement assay. Percent inhibition is calculated by comparison with simultaneous controls. The results of the GPIP appear in Table I together with results of Test Code 026, 035 and Cap 50.

[2] = system: late components of human complement (C3-C9); test: Test Code 035 (C3-C9 inhibitor), lysis of EAC 142; assay type: biochemical; details: serial twofold dilution assay; higher well number indicates higher activity
Procedure: as §1

[3] = system: human serum complement; details: both in vitro and in vivo; cited from earlier work

| C1 026 Wells [1] [Wells] | Compound | C-Late 035 Wells [2] [Wells] | anticomplementary activity, judged by reduction in total hemolytic complement activity [3] |
| --- | --- | --- | --- |
| 12 | O=S(=O)(O)OC[C@H]1O[C@@H](Sc2cccc(S[C@@H]3O[C@H](COS(=O)(=O)O)[C@@H](O[C@H]4O[C@H](COS(=O)(=O)O)[C@@H](OS(=O)(=O)O)[C@H](OS(=O)(=O)O)[C@H]4OS(=O)(=O)O)[C@H](OS(=O)(=O)O)[C@H]3OS(=O)(=O)O)c2)[C@H](OS(=O)(=O)O)[C@@H](OS(=O)(=O)O)[C@@H]1O[C@H]1O[C@H](COS(=O)(=O)O)[C@@H](OS(=O)(=O)O)[C@H](OS(=O)(=O)O)[C@H]1OS(=O)(=O)O [1,3-Bis-[4-O-α-D-glucopyranosyl-β-D-glucopyranosyl-1-thio]-phenylene, tetradecakis(H-sulfate),tetradecasodium salt] | 0.9 | – |
| 13 | O=S(=O)(O)OC[C@H]1O[C@@H](Sc2ccc(-c3ccc(S[C@@H]4O[C@H](COS(=O)(=O)O)[C@@H](O[C@H]5O[C@H](COS(=O)(=O)O)[C@@H](OS(=O)(=O)O)[C@H](OS(=O)(=O)O)[C@H]5OS(=O)(=O)O)[C@H](OS(=O)(=O)O)[C@H]4OS(=O)(=O)O)cc3)cc2)[C@H](OS(=O)(=O)O)[C@@H](OS(=O)(=O)O)[C@@H]1O[C@H]1O[C@H](COS(=O)(=O)O)[C@@H](OS(=O)(=O)O)[C@H](OS(=O)(=O)O)[C@H]1OS(=O)(=O)O [4,4'-Bis-[4-O-α-D-glucopyranosyl-β-D-glucopyranosyl-1-thio]-1,1'-biphenylene, tetradecakis(H-sulfate), tetradecasodium salt] | 2 | – |
| – | pentosanpolysulfoester | – | anticomplementary activity |
